The values below are quoted from earlier work in patent US20050266098A1, “Composition for treatment of a hydrofluoric acid burn” (priority 2004, published 2005).

SMILES strings stand for the structures.

Data set [1] relates to hydrofluoric acid injury. The settings on record: soaks as source of calcium ions.
For data set [2] the following is noted: 18° C.

As for `CC(=O)[O-].CC(=O)[O-].[Ca+2]` [Calcium acetate], in data set [1], the “epidermal response resulting from the treatment” value was “negative epidermal response”.
Take `CC(=O)CCC(=O)O` [Levulinic acid]: the pKa (in general, the negative logarithm of the acid dissociation constant) in data set [2] is 4.64. Besides, the pH in data set [2] (98% aqueous solution) was 6.2.
